Measurements from patent publication US8067424B2, “Selective inhibitors for cyclin-dependent kinases” (Emory University, priority 2007, dated 2011).
Where two headings read alike, the source gives them in different places.

Experiments:
EKVX = experiment: cells; settings: Homo sapiens
MCF-7 tumors = experiment: MCF-7 tumor growth in nude mice, BS-194 subcutaneous; format: in vivo, Balb/c nude mice; settings: subcutaneous twice daily, 14 days
Protocol: In all, 32 female 8- to 10-week Balb/c nude mice (Harlan UK) were randomly divided into three groups. The mice received 0.72 mg 60-day release E2 pellets (Innovative Research of America, USA), subcutaneously implanted in one flank. MCF7 cells, were trypsinized and 5×10^6 cells in 0.1 ml of PBS were subcutaneously injected into the other flank of each mouse and tumor volumes were measured every 2-3 days, according to the formula (tumor width squared×tumor length)/2. Animal weight was also recorded throughout the course of the study. The animals were injected subcutaneously with BS-194, prepared in 10% DMSO, 50 mM HCl, 5% Tween 20, and 85% Saline, twice daily for 14 days, at which point the animals were sacrificed. The xenograft experiments were conducted after appropriate ethical approval and licensing was obtained in accordance with the UK ‘Guidance on the operation of animals (Scientific Procedure) Act 1986 (HMSO, London, UK, 1990).

SNB-19 = experiment: cells; settings: Homo sapiens
HOP-92 = experiment: cells; settings: Homo sapiens
UO-31 = experiment: cells; settings: Homo sapiens
ACHN = settings: for Mean Optical Densities / Percent Growth: ACHN
T-47D = experiment: cells; settings: Homo sapiens, T47D
CCRF-CEM = settings: for Mean Optical Densities / Percent Growth: CCRF-CEM
DU-145 = experiment: cells; settings: Homo sapiens
[1] = UACC-62, log10 concentration −4.0
[2] = UACC-62, log10 concentration −5.0
[3] = UACC-62, log10 concentration −6.0
[4] = UACC-62, log10 concentration −7.0
[5] = UACC-62, log10 concentration −8.0
[6] = MDA-MB-468, log10 concentration −4.0
[7] = MDA-MB-468, log10 concentration −5.0
[8] = MDA-MB-468, log10 concentration −6.0
[9] = MDA-MB-468, log10 concentration −7.0
[10] = MDA-MB-468, log10 concentration −8.0
[11] = HCT-116, log10 concentration −4.0
[12] = HCT-116, log10 concentration −5.0
[13] = HCT-116, log10 concentration −6.0
[14] = HCT-116, log10 concentration −7.0
[15] = HCT-116, log10 concentration −8.0
[16] = OVCAR-5, log10 concentration −4.0
[17] = OVCAR-5, log10 concentration −5.0
[18] = OVCAR-5, log10 concentration −6.0
[19] = OVCAR-5, log10 concentration −7.0
[20] = OVCAR-5, log10 concentration −8.0
[21] = SK-OV-3, log10 concentration −4.0
[22] = SK-OV-3, log10 concentration −5.0
[23] = SK-OV-3, log10 concentration −6.0
[24] = SK-OV-3, log10 concentration −7.0
[25] = SK-OV-3, log10 concentration −8.0

## CC(C)c1cnn2c(NCc3ccccc3)cc(N[C@@H](CO)[C@H](O)CO)nc12 [ICEC0318, (3S)-3-(7-(Benzylamino)-3-isopropylpyrazolo[1,5-a]pyrimidin-5-ylamino)butane-1,2,4-triol]
EKVX
  GI50: 286 nM
EKVX; read-out: LC50
  CC50: > 100 µM
MCF-7 tumors
  Change in animal weight: nearly constant
SNB-19; SNB-19
  GI50: 283 nM
SNB-19; SNB-19, read-out: LC50
  CC50: > 100 µM
PC-3; PC-3 (Prostate Cancer)
  TGI: >1.00E−4
PC-3; PC-3, log10 concentration −4.0
  Mean Optical Densities: 0.173
  Percent Growth: 2%
PC-3; PC-3, log10 concentration −5.0
  Mean Optical Densities: 0.200
  Percent Growth: 9%
PC-3; PC-3, log10 concentration −6.0
  Mean Optical Densities: 0.218
  Percent Growth: 14%
PC-3; PC-3, log10 concentration −7.0
  Mean Optical Densities: 0.486
  Percent Growth: 85%
PC-3; PC-3, log10 concentration −8.0
  Mean Optical Densities: 0.532
  Percent Growth: 97%
HOP-92; HOP-92
  GI50: 369 nM
HOP-92; HOP-92, read-out: LC50
  CC50: > 100 µM
UO-31; UO-31
  GI50: 289 nM
UO-31; UO-31, read-out: LC50
  CC50: > 100 µM
ACHN; ACHN (Renal Cancer)
  TGI: >1.00E−4
ACHN; log10 concentration −4.0
  Mean Optical Densities: 0.343
  Percent Growth: 5%
ACHN; log10 concentration −5.0
  Mean Optical Densities: 0.347
  Percent Growth: 5%
ACHN; log10 concentration −6.0
  Mean Optical Densities: 0.358
  Percent Growth: 6%
ACHN; log10 concentration −7.0
  Mean Optical Densities: 1.080
  Percent Growth: 75%
ACHN; log10 concentration −8.0
  Mean Optical Densities: 1.302
  Percent Growth: 96%
T-47D
  GI50: 305 nM
T-47D; read-out: LC50
  CC50: > 100 µM
UACC-62; UACC-62 (Melanoma)
  TGI: 3.16E−7
UACC-62; [1]
  Mean Optical Densities: 0.078
  Percent Growth: −90%
UACC-62; [2]
  Mean Optical Densities: 0.165
  Percent Growth: −78%
UACC-62; [3]
  Mean Optical Densities: 0.142
  Percent Growth: −81%
UACC-62; [4]
  Mean Optical Densities: 1.821
  Percent Growth: 81%
UACC-62; [5]
  Mean Optical Densities: 2.110
  Percent Growth: 102%
MDA-MB-468; Homo sapiens, MDA-MB-468
  GI50: 165 nM
MDA-MB-468; Homo sapiens, MDA-MB-468, read-out: LC50
  CC50: 803 nM
MDA-MB-468; MDA-MB-468 (Breast Cancer)
  TGI: 3.64E−7
MDA-MB-468; [6]
  Mean Optical Densities: 0.121
  Percent Growth: −72%
MDA-MB-468; [7]
  Mean Optical Densities: 0.153
  Percent Growth: −64%
MDA-MB-468; [8]
  Mean Optical Densities: 0.154
  Percent Growth: −64%
MDA-MB-468; [9]
  Mean Optical Densities: 0.884
  Percent Growth: 82%
MDA-MB-468; [10]
  Mean Optical Densities: 0.946
  Percent Growth: 93%
CCRF-CEM; CCRF-CEM (Leukemia)
  TGI: >1.00E−4
CCRF-CEM; log10 concentration −4.0
  Mean Optical Densities: 0.227
  Percent Growth: 11%
CCRF-CEM; log10 concentration −5.0
  Mean Optical Densities: 0.330
  Percent Growth: 33%
CCRF-CEM; log10 concentration −6.0
  Mean Optical Densities: 0.279
  Percent Growth: 22%
CCRF-CEM; log10 concentration −7.0
  Mean Optical Densities: 0.565
  Percent Growth: 82%
CCRF-CEM; log10 concentration −8.0
  Mean Optical Densities: 0.769
  Percent Growth: 125%
DU-145; DU-145
  GI50: 377 nM
DU-145; DU-145, read-out: LC50
  CC50: > 100 µM
HCT-116; HCT-116 (Colon Cancer)
  TGI: >1.00E−4
HCT-116; [11]
  Mean Optical Densities: 0.170
  Percent Growth: 1%
HCT-116; [12]
  Mean Optical Densities: 0.179
  Percent Growth: 2%
HCT-116; [13]
  Mean Optical Densities: 0.182
  Percent Growth: 2%
HCT-116; [14]
  Mean Optical Densities: 0.749
  Percent Growth: 62%
HCT-116; [15]
  Mean Optical Densities: 1.058
  Percent Growth: 95%
KM12; KM12 (Colon Cancer)
  TGI: >1.00E−4
KM12; KM12, log10 concentration −4.0
  Mean Optical Densities: 0.305
  Percent Growth: 10%
KM12; KM12, log10 concentration −5.0
  Mean Optical Densities: 0.304
  Percent Growth: 10%
KM12; KM12, log10 concentration −6.0
  Mean Optical Densities: 0.318
  Percent Growth: 12%
KM12; KM12, log10 concentration −7.0
  Mean Optical Densities: 0.802
  Percent Growth: 80%
KM12; KM12, log10 concentration −8.0
  Mean Optical Densities: 1.036
  Percent Growth: 113%
OVCAR-5; OVCAR-5 (Ovarian Cancer)
  TGI: >1.00E−4
OVCAR-5; [16]
  Mean Optical Densities: 0.618
  Percent Growth: 10%
OVCAR-5; [17]
  Mean Optical Densities: 0.688
  Percent Growth: 19%
OVCAR-5; [18]
  Mean Optical Densities: 0.665
  Percent Growth: 16%
OVCAR-5; [19]
  Mean Optical Densities: 1.165
  Percent Growth: 82%
OVCAR-5; [20]
  Mean Optical Densities: 1.211
  Percent Growth: 88%
SK-OV-3; SK-OV-3 (Ovarian Cancer)
  TGI: >1.00E−4
SK-OV-3; [21]
  Mean Optical Densities: 0.799
  Percent Growth: 9%
SK-OV-3; [22]
  Mean Optical Densities: 0.860
  Percent Growth: 17%
SK-OV-3; [23]
  Mean Optical Densities: 0.903
  Percent Growth: 23%
SK-OV-3; [24]
  Mean Optical Densities: 1.701
  Percent Growth: 132%
SK-OV-3; [25]
  Mean Optical Densities: 1.504
  Percent Growth: 105%
